Values joined by “and” are separate entries in the source; they are usually repeats but may differ in a detail not shown here. Equal entries are not always repeated. Toxic doses and inconclusive results are not listed. The calls were made as follows: active = survival T/C of 150% or more; inactive = T/C below 125% in these data.
System: P388 leukemia ip, CD2F1 mice, survival T/C
Test: NCI In Vivo Anticancer Drug Screen. Data for tumor model P388 Leukemia (intraperitoneal) in CD2F1 (CDF1) mice
Conditions: endpoint: median survival time, higher = longer survival
Method in brief: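 Mice carrying the transplanted tumor received test compound or vehicle. Survival was recorded in each group, and the value is the treated-group measurement divided by that of the vehicle-treated control group.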

[1] = dose: 50.0 mg/kg/injection, schedule: Q01DX009 (ip), vehicle: Klucel (hydroxypropylcellulose) (HPC)
[2] = dose: 100.0 mg/kg/injection, schedule: Q01DX009 (ip), vehicle: Klucel (hydroxypropylcellulose) (HPC)
[3] = dose: 200.0 mg/kg/injection, schedule: Q01DX009 (ip), vehicle: Klucel (hydroxypropylcellulose) (HPC)
[4] = dose: 50.0 mg/kg/injection, schedule: Q01DX005 (ip), vehicle: saline with Tween-80
[5] = dose: 100.0 mg/kg/injection, schedule: Q01DX005 (ip), vehicle: saline with Tween-80
[6] = dose: 200.0 mg/kg/injection, schedule: Q01DX005 (ip), vehicle: saline with Tween-80
[7] = dose: 60.0 mg/kg/injection, schedule: Q01DX005 (ip), vehicle: saline
[8] = dose: 60.0 mg/kg/injection, schedule: Q01DX005 (ip), vehicle: saline with Tween-80
[9] = dose: 120.0 mg/kg/injection, schedule: Q01DX005 (ip), vehicle: saline with Tween-80
[10] = dose: 240.0 mg/kg/injection, schedule: Q01DX005 (ip), vehicle: saline with Tween-80
[11] = dose: 100.0 mg/kg/injection, schedule: Q04DX003 (ip), vehicle: saline
[12] = dose: 200.0 mg/kg/injection, schedule: Q04DX003 (ip), vehicle: saline

Measured: T/C

Nc1nc(N)nc(NCCSS(=O)(=O)O)n1
inactive: [1] 94 % of control | [2] 94 % of control | [3] 91 % of control

COc1cc2c(cc1OC)C1c3cc(OC)c(OC)cc3CCN1CC2
inactive: dose: 3.13 mg/kg/injection, schedule: Q01DX009 (ip), vehicle: water 106 % of control | dose: 6.25 mg/kg/injection, schedule: Q01DX009 (ip), vehicle: water 106 % of control | dose: 12.5 mg/kg/injection, schedule: Q01DX009 (ip), vehicle: water 100 % of control | dose: 25.0 mg/kg/injection, schedule: Q01DX009 (ip), vehicle: water 107 % of control

ClCC1=NC2CCCCC2N1 (stereo unspecified)
inactive: [4] 102 % of control | [5] 98 % of control

Clc1ccc(CN2CCCN(Cc3ccc(Cl)cc3)C2c2cc3ccccc3c3ccccc23)cc1
inactive: [4] 99 % of control | [5] 97 % of control | [6] 93 % of control

C/C(=C(/O)c1ccccc1)c1nc2ccc(Cl)cc2[nH]c1=O
inactive: dose: 60.0 mg/kg/injection, schedule: Q01DX005 (ip), vehicle: Klucel + Tween-80 103 % of control | dose: 120.0 mg/kg/injection, schedule: Q01DX005 (ip), vehicle: Klucel + Tween-80 94 % of control | dose: 240.0 mg/kg/injection, schedule: Q01DX005 (ip), vehicle: Klucel + Tween-80 91 % of control

CCN(CC)Cc1cc(Nc2cc(C)nc3ccc(N(C)C)cc23)ccc1O
inactive: dose: 15.0 mg/kg/injection, schedule: Q01DX005 (ip), vehicle: saline 91 % of control | dose: 30.0 mg/kg/injection, schedule: Q01DX005 (ip), vehicle: saline 100 % of control | [7] 104 % of control and 110 % of control

O=C(NCc1ccco1)Nc1cccc2c(NC(=O)NCc3ccco3)cccc12
inactive: dose: 30.0 mg/kg/injection, schedule: Q01DX005 (ip), vehicle: saline with Tween-80 100 % of control | [8] 97 % of control | [9] 90 % of control | [10] 86 % of control

C/C(N)=C/C(=O)Nc1ccccc1
inactive: dose: 25.0 mg/kg/injection, schedule: Q01DX009 (ip), vehicle: Klucel (hydroxypropylcellulose) (HPC) 109 % of control | [1] 109 % of control | [2] 97 % of control | [3] 108 % of control

COc1ccc(C(C)c2cc3c(cc2OC)OCO3)cc1C (stereo unspecified)
inactive: dose: 25.0 mg/kg/injection, schedule: Q01DX005 (ip), vehicle: Klucel (hydroxypropylcellulose) (HPC) 104 % of control and 105 % of control | dose: 50.0 mg/kg/injection, schedule: Q01DX005 (ip), vehicle: Klucel (hydroxypropylcellulose) (HPC) 100 % of control and 109 % of control and 120 % of control | dose: 100.0 mg/kg/injection, schedule: Q01DX005 (ip), vehicle: Klucel (hydroxypropylcellulose) (HPC) 98 % of control and 105 % of control and 111 % of control | dose: 200.0 mg/kg/injection, schedule: Q01DX005 (ip), vehicle: Klucel (hydroxypropylcellulose) (HPC) 100 % of control and 110 % of control and 120 % of control | dose: 400.0 mg/kg/injection, schedule: Q01DX005 (ip), vehicle: Klucel (hydroxypropylcellulose) (HPC) 100 % of control

CC12CCC3(O)C(CCC4C(O)C(=O)CCC43C)C1CCC2=O (stereo unspecified)
inactive: dose: 11.25 mg/kg/injection, schedule: Q01DX005 (ip), vehicle: Klucel (hydroxypropylcellulose) (HPC) 105 % of control | dose: 22.5 mg/kg/injection, schedule: Q01DX005 (ip), vehicle: Klucel (hydroxypropylcellulose) (HPC) 100 % of control | dose: 45.0 mg/kg/injection, schedule: Q01DX005 (ip), vehicle: Klucel (hydroxypropylcellulose) (HPC) 105 % of control | dose: 90.0 mg/kg/injection, schedule: Q01DX005 (ip), vehicle: Klucel (hydroxypropylcellulose) (HPC) 114 % of control | dose: 180.0 mg/kg/injection, schedule: Q01DX005 (ip), vehicle: Klucel (hydroxypropylcellulose) (HPC) 98 % of control

C=C(CO)CC(CC(=C)CCS(=O)(=O)c1ccccc1)S(=O)(=O)c1ccccc1 (stereo unspecified)
inactive: [8] 94 % of control | [9] 106 % of control | [10] 100 % of control

COc1cc2c(O)cc(C(=O)O)c(-c3cc(OC)c(OC)c(OC)c3)c2cc1OC
inactive: [4] 98 % of control | [5] 103 % of control | [6] 100 % of control

CCNC(C)(C)C(SSSC(c1ccc(C(F)(F)F)cc1)C(C)(C)NCC)c1ccc(C(F)(F)F)cc1 (stereo unspecified)
inactive: dose: 25.0 mg/kg/injection, schedule: Q04DX003 (ip), vehicle: saline 107 % of control | dose: 50.0 mg/kg/injection, schedule: Q04DX003 (ip), vehicle: saline 107 % of control | [11] 103 % of control

O=P(CSCCO)(c1ccccc1)c1ccccc1
inactive: [8] 89 % of control | [9] 93 % of control | [10] 97 % of control

O=C1CCCN1.O=C1CCCN1.[Br][Co][Br]
inactive: dose: 25.0 mg/kg/injection, schedule: Q01DX009 (ip), vehicle: saline with Tween-80 104 % of control | dose: 50.0 mg/kg/injection, schedule: Q01DX009 (ip), vehicle: saline with Tween-80 122 % of control

O=c1[nH]c(=O)n(C2OC(CO)C(O)C2O)c(=O)[nH]1 (stereo unspecified)
inactive: [7] 100 % of control | dose: 120.0 mg/kg/injection, schedule: Q01DX005 (ip), vehicle: saline 95 % of control | dose: 240.0 mg/kg/injection, schedule: Q01DX005 (ip), vehicle: saline 96 % of control

CCOCC(=O)c1ccc2c(O)c3c(c(O)c2c1)C(=O)c1cccc(OC)c1C3=O
inactive: dose: 1.56 mg/kg/injection, schedule: Q01DX009 (ip), vehicle: other 105 % of control | dose: 3.13 mg/kg/injection, schedule: Q01DX009 (ip), vehicle: other 104 % of control | dose: 6.25 mg/kg/injection, schedule: Q01DX009 (ip), vehicle: other 103 % of control | dose: 12.5 mg/kg/injection, schedule: Q01DX009 (ip), vehicle: other 106 % of control | dose: 25.0 mg/kg/injection, schedule: Q01DX009 (ip), vehicle: other 108 % of control

NOCc1cccc([N+](=O)[O-])c1
inactive: dose: 50.0 mg/kg/injection, schedule: Q01DX009 (ip), vehicle: saline 104 % of control | dose: 100.0 mg/kg/injection, schedule: Q01DX009 (ip), vehicle: saline 95 % of control | dose: 200.0 mg/kg/injection, schedule: Q01DX009 (ip), vehicle: saline 100 % of control

Nc1ccc(C(O)(C(F)(F)F)C(F)(F)F)c(C(=O)O)c1
inactive: dose: 100.0 mg/kg/injection, schedule: Q04DX003 (ip), vehicle: other 104 % of control | dose: 200.0 mg/kg/injection, schedule: Q04DX003 (ip), vehicle: other 100 % of control | dose: 400.0 mg/kg/injection, schedule: Q04DX003 (ip), vehicle: other 109 % of control

CCN(CC)c1ccc(NC(=S)NN)cc1
inactive: dose: 60.0 mg/kg/injection, schedule: Q01DX005 (ip), vehicle: Klucel (hydroxypropylcellulose) (HPC) 100 % of control | dose: 120.0 mg/kg/injection, schedule: Q01DX005 (ip), vehicle: Klucel (hydroxypropylcellulose) (HPC) 97 % of control

OCC1OC(Oc2ncccn2)C(O)C1O (stereo unspecified)
inactive: dose: 50.0 mg/kg/injection, schedule: Q01DX005 (ip), vehicle: saline 97 % of control | dose: 50.0 mg/kg/injection, schedule: Q01DX005 (ip), vehicle: suspension in saline 99 % of control | dose: 100.0 mg/kg/injection, schedule: Q01DX005 (ip), vehicle: saline 99 % of control | dose: 100.0 mg/kg/injection, schedule: Q01DX005 (ip), vehicle: suspension in saline 99 % of control | dose: 200.0 mg/kg/injection, schedule: Q01DX005 (ip), vehicle: saline 101 % of control | dose: 200.0 mg/kg/injection, schedule: Q01DX005 (ip), vehicle: suspension in saline 98 % of control | dose: 400.0 mg/kg/injection, schedule: Q01DX005 (ip), vehicle: saline 104 % of control | dose: 400.0 mg/kg/injection, schedule: Q01DX005 (ip), vehicle: suspension in saline 99 % of control

O=c1[nH]cnc2cc3c(cc12)nc1n3CCOC1
inactive: [11] 109 % of control | [12] 105 % of control

NC(=O)CCSC(N)=O
inactive: [4] 102 % of control | [5] 100 % of control | [6] 102 % of control

CN(C)CCNC1=CC(=O)c2ccccc2C1=O
inactive: dose: 12.5 mg/kg/injection, schedule: Q01DX009 (ip), vehicle: distilled water + Tween-80 94 % of control | dose: 25.0 mg/kg/injection, schedule: Q01DX009 (ip), vehicle: distilled water + Tween-80 101 % of control | dose: 50.0 mg/kg/injection, schedule: Q01DX009 (ip), vehicle: distilled water + Tween-80 100 % of control | dose: 100.0 mg/kg/injection, schedule: Q01DX009 (ip), vehicle: distilled water + Tween-80 97 % of control

CC1/C(=N\Nc2ccc([N+](=O)[O-])cc2)CC2C3(C)CCC2(C(C)C(=O)O)C(=O)C13 (stereo unspecified)
inactive: [11] 93 % of control | [12] 93 % of control | dose: 400.0 mg/kg/injection, schedule: Q04DX003 (ip), vehicle: saline 95 % of control

— PubChem BioAssay AID330 (DTP/NCI, 2004)
